Calls of active or inactive are those of the source. Unless noted, the calls are words filed in the database; no cut-off is given here.
How the values were obtained:
[1] = target: Activin receptor type-1-like (Homo sapiens, UniProt P37023)
[2] = target: 5'-AMP-activated protein kinase subunit gamma-1 (Homo sapiens, UniProt P54619)
[3] = target: T1, Uncharacterized protein FLJ45252 (Homo sapiens, UniProt Q6ZSR9)
T1 sequence (Q6ZSR9 whole entry): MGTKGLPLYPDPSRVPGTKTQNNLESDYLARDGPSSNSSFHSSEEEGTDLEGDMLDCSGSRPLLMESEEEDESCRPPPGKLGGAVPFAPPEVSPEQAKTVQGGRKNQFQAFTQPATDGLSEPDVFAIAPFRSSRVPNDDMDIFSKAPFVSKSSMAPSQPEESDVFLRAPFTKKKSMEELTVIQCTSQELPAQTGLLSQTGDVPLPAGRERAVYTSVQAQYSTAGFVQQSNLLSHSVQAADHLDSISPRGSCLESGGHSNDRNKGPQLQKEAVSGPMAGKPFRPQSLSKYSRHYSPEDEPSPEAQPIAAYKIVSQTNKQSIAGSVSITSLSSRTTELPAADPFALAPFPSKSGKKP

[4] = target: 5'-AMP-activated protein kinase subunit gamma-2 (Homo sapiens, UniProt Q9UGJ0)
5'-AMP-activated protein kinase subunit gamma-2, sequence (Q9UGJ0 whole entry): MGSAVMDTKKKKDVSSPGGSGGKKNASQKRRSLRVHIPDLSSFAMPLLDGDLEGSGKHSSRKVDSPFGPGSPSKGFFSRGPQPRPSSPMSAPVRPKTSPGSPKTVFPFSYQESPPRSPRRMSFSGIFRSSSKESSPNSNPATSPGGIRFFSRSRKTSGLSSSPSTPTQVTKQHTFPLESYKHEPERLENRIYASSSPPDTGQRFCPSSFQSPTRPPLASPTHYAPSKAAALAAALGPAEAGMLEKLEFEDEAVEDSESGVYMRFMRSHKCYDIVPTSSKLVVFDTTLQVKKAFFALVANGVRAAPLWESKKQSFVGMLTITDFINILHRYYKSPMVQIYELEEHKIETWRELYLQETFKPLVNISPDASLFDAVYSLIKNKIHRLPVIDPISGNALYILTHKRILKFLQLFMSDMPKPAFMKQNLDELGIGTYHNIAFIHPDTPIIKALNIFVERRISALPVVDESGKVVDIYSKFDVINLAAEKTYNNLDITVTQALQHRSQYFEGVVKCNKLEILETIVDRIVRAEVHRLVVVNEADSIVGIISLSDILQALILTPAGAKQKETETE

[5] = target: Putative nucleoside diphosphate kinase (Homo sapiens, UniProt O60361)
Putative nucleoside diphosphate kinase, sequence (O60361 whole entry): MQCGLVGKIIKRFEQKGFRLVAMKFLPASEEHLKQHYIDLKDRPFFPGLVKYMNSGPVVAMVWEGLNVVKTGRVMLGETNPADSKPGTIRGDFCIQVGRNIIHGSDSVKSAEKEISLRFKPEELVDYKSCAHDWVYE

[6] = target: Nucleoside diphosphate kinase B (Homo sapiens, UniProt P22392)
Nucleoside diphosphate kinase B, sequence (P22392 whole entry): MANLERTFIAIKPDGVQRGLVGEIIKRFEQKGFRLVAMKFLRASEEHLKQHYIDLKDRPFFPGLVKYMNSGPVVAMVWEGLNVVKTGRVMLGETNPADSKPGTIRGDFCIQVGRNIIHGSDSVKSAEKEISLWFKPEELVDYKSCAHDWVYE

Activin receptor type-1-like, sequence (P37023 whole entry): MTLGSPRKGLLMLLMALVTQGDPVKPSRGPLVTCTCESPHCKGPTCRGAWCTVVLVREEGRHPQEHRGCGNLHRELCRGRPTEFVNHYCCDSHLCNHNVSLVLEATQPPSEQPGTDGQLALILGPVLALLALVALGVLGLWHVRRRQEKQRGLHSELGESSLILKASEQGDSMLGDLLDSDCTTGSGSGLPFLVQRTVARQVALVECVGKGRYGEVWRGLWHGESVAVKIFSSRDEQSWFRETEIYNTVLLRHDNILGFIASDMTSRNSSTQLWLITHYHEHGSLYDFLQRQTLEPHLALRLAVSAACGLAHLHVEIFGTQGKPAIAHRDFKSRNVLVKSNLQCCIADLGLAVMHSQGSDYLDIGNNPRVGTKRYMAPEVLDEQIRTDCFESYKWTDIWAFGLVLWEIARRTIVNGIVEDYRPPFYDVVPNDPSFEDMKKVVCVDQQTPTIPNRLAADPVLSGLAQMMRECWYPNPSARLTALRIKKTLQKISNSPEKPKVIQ
5'-AMP-activated protein kinase subunit gamma-1, sequence (P54619 whole entry): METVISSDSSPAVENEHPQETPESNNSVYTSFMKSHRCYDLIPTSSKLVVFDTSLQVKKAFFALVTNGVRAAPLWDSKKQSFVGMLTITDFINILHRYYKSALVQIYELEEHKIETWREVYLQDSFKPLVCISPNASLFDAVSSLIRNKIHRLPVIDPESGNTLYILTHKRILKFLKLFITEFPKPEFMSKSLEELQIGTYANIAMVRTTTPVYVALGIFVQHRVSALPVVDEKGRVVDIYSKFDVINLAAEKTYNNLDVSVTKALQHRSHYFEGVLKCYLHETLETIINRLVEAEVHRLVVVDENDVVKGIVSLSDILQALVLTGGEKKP

SMILES | Kd [1] | Kd [2] | Kd [3] | Kd [6] | further results
Cc1c(NC(=O)OC[C@@H]2COCCN2)cn2ncnc(Nc3ccc4c(cnn4Cc4cccc(F)c4)c3)c12 [AC-480] | > 30 µM (inactive) | – | – | – | –
COc1ccc2c(OCc3nnc4ccc(-c5ccccc5)nn34)ccnc2c1 [AMG-208] | > 30 µM (inactive) | – | – | – | –
CCOc1ccn(-c2ccc(F)cc2)c(=O)c1C(=O)Nc1ccc(Oc2ccnc(N)c2Cl)c(F)c1 [BMS-777607] | – | > 30 µM (inactive) | > 30 µM (inactive) | – | –
COc1cc2c(Oc3ccc4[nH]c(C)cc4c3F)ncnc2cc1OCCCN1CCCC1 [CEDIRANIB] | – | > 30 µM (inactive) | > 30 µM (inactive) | – | Kd [4]: > 30 µM (inactive)
C[C@]1(O)C[C@@H](c2nc(-c3ccc4ccc(-c5ccccc5)nc4c3)c3c(N)nccn32)C1 [LINSITINIB] | > 30 µM (inactive) | – | – | – | –
O=C(NOC[C@H](O)CO)c1ccc(F)c(F)c1Nc1ccc(I)cc1F [MIRDAMETINIB] | > 30 µM (inactive) | – | – | – | –
C=CC(=O)Nc1cc(Nc2nccc(-c3cn(C)c4ccccc34)n2)c(OC)cc1N(C)CCN(C)C [OSIMERTINIB] | – | > 30 µM (inactive) | > 30 µM (inactive) | > 30 µM (inactive) | Kd [4]: > 30 µM (inactive); Kd [5]: > 30 µM (inactive)
FC(F)(F)c1ccc(CNc2ccc(Cc3c[nH]c4ncc(Cl)cc34)cn2)cn1 [PEXIDARTINIB] | – | > 30 µM (inactive) | 1.45 µM (active) | – | Kd [4]: > 30 µM (inactive)
CN(c1ncccc1CNc1nc(Nc2ccc3c(c2)CC(=O)N3)ncc1C(F)(F)F)S(C)(=O)=O [PF-00562271] | – | – | – | > 30 µM (inactive) | Kd [5]: 0.862 µM
Cn1c(=O)c(F)c(Nc2ccc(I)cc2F)c2c(=O)n(C[C@@H](O)CO)cnc21 [TAK-733] | – | – | – | > 30 µM (inactive) | –
CNC(=O)c1cccc(-c2ccc3c(N4CCOC[C@@H]4C)nc(N4CCOC[C@@H]4C)nc3n2)c1 [VISTUSERTIB] | > 30 µM (inactive) | – | – | – | –
NC(=O)c1ccc(N(C(N)=O)c2c(F)cccc2F)nc1-c1ccc(F)cc1F [VX-702] | – | – | – | > 30 µM (inactive) | Kd [5]: > 30 µM (inactive)

Source: ChEMBL document CHEMBL3991601, “The target landscape of clinical kinase drugs” (Science, 2017)
